Laboratory results: patent publication US4605744A, “Imidazole derivatives” (Hoffmann-La Roche Inc., priority 1985, dated 1986)
Structures can show the parent of a compound that is named as a salt. Where two headings read alike, the source gives them in different places.

Legend:
Assay type in all cases: cell-based
[1] = test system: E. cloacae 5699; experiment: In vitro antibacterial activity (MIC); details: Enterobacter cloacae, 5699, E. cloacae 5699; read-out: MIC
How it was run: (§1)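 Broth microdilution in Mueller-Hinton broth, drug range 128 to 0.008 μg/ml; each well inoculated with 1.5 μl of a 10^-2 dilution of overnight culture. Sealed trays incubated overnight at 37° C. MIC is the lowest concentration showing no visible growth.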

[2] = test system: P. vulgaris 101; experiment: In vitro antibacterial activity (MIC); details: Proteus vulgaris, 101, P. vulgaris 101; read-out: MIC
How it was run: as §1

[3] = test system: E. aerogenes 83; experiment: In vitro antibacterial activity (MIC)
How it was run: as §1

[4] = test system: E. cloacae 24; experiment: In vitro antibacterial activity (MIC); details: Enterobacter cloacae, 24, E. cloacae 24; read-out: MIC
How it was run: as §1

[5] = test system: P. aeruginosa POW 151; experiment: In vitro antibacterial activity (MIC); details: Pseudomonas aeruginosa, POW151
How it was run: as §1

[6] = test system: E. aerogenes 503-478; experiment: In vitro antibacterial activity (MIC); details: Klebsiella aerogenes, 503478, E. aerogenes 503-478; read-out: MIC
How it was run: as §1

[7] = test system: E. coli 387-1; experiment: In vitro antibacterial activity (MIC); details: Escherichia coli, 3871, E. coli 387-1; read-out: MIC
How it was run: as §1

[8] = test system: S. marcescens S1; experiment: In vitro antibacterial activity (MIC); details: Serratia marcescens, S1, S. marcescens S1; read-out: MIC
How it was run: as §1

[9] = test system: S. marcescens S147; experiment: In vitro antibacterial activity (MIC); details: Serratia marcescens; S. marcescens S147; read-out: MIC
How it was run: as §1

[10] = test system: K. pneumoniae 4964; experiment: In vitro antibacterial activity (MIC)
How it was run: as §1

[11] = test system: P. mirabilis 503-1136; experiment: In vitro antibacterial activity (MIC); details: Proteus mirabilis, 5031136, P. mirabilis 503-1136; read-out: MIC
How it was run: as §1

[12] = test system: S. pneumoniae 6302; experiment: In vitro antibacterial activity (MIC); details: Streptococcus pneumoniae, 6302, S. pneumoniae 6302; read-out: MIC
How it was run: as §1

[13] = test system: P. mirabilis 2; experiment: In vitro antibacterial activity (MIC); details: Proteus mirabilis, 2, P. mirabilis 2; read-out: MIC
How it was run: as §1

[14] = test system: C. diversus CDC 1663-72; experiment: In vitro antibacterial activity (MIC); details: Citrobacter koseri, CDC166372; C. diversus CDC 1663-72; read-out: MIC
How it was run: as §1

[15] = test system: K. pneumoniae 35; experiment: In vitro antibacterial activity (MIC); details: Klebsiella pneumoniae; K. pneumoniae 35; read-out: MIC
How it was run: as §1

[16] = test system: S. marcescens S4; experiment: In vitro antibacterial activity (MIC); details: Serratia marcescens, S4, S. marcescens S4; read-out: MIC
How it was run: as §1

[17] = test system: S. pneumoniae SC; experiment: In vitro antibacterial activity (MIC); details: Streptococcus pneumoniae, read-out: MIC
How it was run: as §1

[18] = test system: P. aeruginosa 503-56; experiment: In vitro antibacterial activity (MIC); details: Pseudomonas aeruginosa, 50356, P. aeruginosa 503-56; read-out: MIC
How it was run: as §1

[19] = test system: E. cloacae 9295; experiment: In vitro antibacterial activity (MIC)
How it was run: as §1

[20] = test system: P. aeruginosa 6148B; experiment: In vitro antibacterial activity (MIC); details: Pseudomonas aeruginosa, read-out: MIC
How it was run: as §1

[21] = test system: K. pneumoniae 503-994; experiment: In vitro antibacterial activity (MIC); details: Klebsiella pneumoniae, 503994, K. pneumoniae 503-994; read-out: MIC
How it was run: as §1

[22] = test system: E. coli 48; experiment: In vitro antibacterial activity (MIC); details: Escherichia coli, 48, E. coli 48; read-out: MIC
How it was run: as §1

[23] = test system: K. pneumoniae HE7; experiment: In vitro antibacterial activity (MIC); details: Klebsiella pneumoniae; K. pneumoniae HE7; read-out: MIC
How it was run: as §1

[24] = test system: S. pyogenes 503-782; experiment: In vitro antibacterial activity (MIC); details: Streptococcus pyogenes, 503782; S. pyogenes 503-782; read-out: MIC
How it was run: as §1

[25] = test system: K. pneumoniae 5096; experiment: In vitro antibacterial activity (MIC); details: Klebsiella pneumoniae; K. pneumoniae 5096; read-out: MIC
How it was run: as §1

[26] = test system: S. marcescens 5805; experiment: In vitro antibacterial activity (MIC); details: Serratia marcescens, 5805, S. marcescens 5805; read-out: MIC
How it was run: as §1

[27] = test system: P. aeruginosa 8710; experiment: In vitro antibacterial activity (MIC); details: Pseudomonas aeruginosa; P. aeruginosa 8710; read-out: MIC
How it was run: as §1

[28] = test system: P. aeruginosa B; experiment: In vitro antibacterial activity (MIC); details: Pseudomonas aeruginosa, read-out: MIC
How it was run: as §1

[29] = test system: E. coli 4; experiment: In vitro antibacterial activity (MIC); details: Escherichia coli, 4, E. coli 4; read-out: MIC
How it was run: as §1

[30] = test system: P. aeruginosa 5712; experiment: In vitro antibacterial activity (MIC); details: Pseudomonas aeruginosa; P. aeruginosa 5712; read-out: MIC
How it was run: as §1

[31] = test system: C. freundii CDC6; experiment: In vitro antibacterial activity (MIC); details: Citrobacter freundii, CDC6, C. freundii CDC6; read-out: MIC
How it was run: as §1

[32] = test system: S. marcescens S714; experiment: In vitro antibacterial activity (MIC); details: Serratia marcescens, S714, S. marcescens S714; read-out: MIC
How it was run: as §1

[33] = test system: P. vulgaris ATCC 6380; experiment: In vitro antibacterial activity (MIC); details: Proteus vulgaris, ATCC6380, P. vulgaris ATCC 6380; read-out: MIC
How it was run: as §1

[34] = test system: S. marcescens S3; experiment: In vitro antibacterial activity (MIC); details: Serratia marcescens; S. marcescens S3; read-out: MIC
How it was run: as §1

[35] = test system: E. coli 5152; experiment: In vitro antibacterial activity (MIC)
How it was run: as §1

[36] = test system: C. freundii 8ASM; experiment: In vitro antibacterial activity (MIC); details: Citrobacter freundii, 8ASM, C. freundii 8ASM; read-out: MIC
How it was run: as §1

[37] = test system: E. cloacae 214; experiment: In vitro antibacterial activity (MIC); details: Enterobacter cloacae, 214, E. cloacae 214; read-out: MIC
How it was run: as §1

[38] = test system: S. typhi P58A; experiment: In vitro antibacterial activity (MIC); details: Salmonella enterica, TYPHI
How it was run: as §1

[39] = test system: S. aureus Smith; experiment: In vitro antibacterial activity (MIC); details: Staphylococcus aureus, S. aureus Smith; read-out: MIC
How it was run: as §1

[40] = test system: S. schottmuelleri; experiment: In vitro antibacterial activity (MIC); details: read-out: MIC
How it was run: as §1

[41] = test system: S. pneumoniae 6301; experiment: In vitro antibacterial activity (MIC)
How it was run: as §1

[42] = test system: S. pyogenes 4; experiment: In vitro antibacterial activity (MIC); details: Streptococcus pyogenes, 4, S. pyogenes 4; read-out: MIC
How it was run: as §1

[43] = test system: E. cloacae 9570A; experiment: In vitro antibacterial activity (MIC); details: Enterobacter cloacae, read-out: MIC
How it was run: as §1

[44] = test system: E. coli 257; experiment: In vitro antibacterial activity (MIC, Mueller-Hinton broth)
How it was run: as §1

Structure (SMILES): CC1(C)S[C@@H]2[C@H](N=CN3CCC(Cn4ccnc4N)CC3)C(=O)N2[C@H]1C(=O)O [H, [2S-(2alpha,5alpha,6beta)]-6-[[[4-[(2-amino-1H-imidazol-1-yl)methyl-1-piperidinyl]methylene]amino]-3,3-dimethyl-7-oxo-4-thia-1-azabicyclo[3.2.0]heptane-2-carboxylic acid hydrochloride]
- MIC [1]: 0.25 µg/mL
- MIC [2]: 8 µg/mL
- MIC ([3]; Klebsiella aerogenes, 83): 16 µg/mL
- MIC [4]: 0.25 µg/mL
- MIC [5]: > 128 µg/mL
- MIC [6]: 8 µg/mL
- MIC [7]: 0.125 µg/mL
- MIC [8]: 0.125 µg/mL
- MIC [9]: 0.031 µg/mL
- MIC ([10]; Klebsiella pneumoniae, 4964, K. pneumoniae 4964, read-out: MIC): 64 µg/mL
- MIC [11]: 4 µg/mL
- MIC [12]: 1 µg/mL
- MIC [13]: 0.25 µg/mL
- MIC [14]: 0.062 µg/mL
- MIC [15]: 0.25 µg/mL
- MIC [16]: 0.5 µg/mL
- MIC [17]: 1 µg/mL
- MIC [18]: 32 µg/mL
- MIC ([19]; Enterobacter cloacae, 9295): 0.5 µg/mL
- MIC [20]: 64 µg/mL
- MIC [21]: 0.125 µg/mL
- MIC [22]: 0.062 µg/mL
- MIC [23]: 128 µg/mL
- MIC [24]: 64 µg/mL
- MIC [25]: 64 µg/mL
- MIC [26]: 0.5 µg/mL
- MIC [27]: 128 µg/mL
- MIC [28]: 0.5 µg/mL
- MIC [29]: 0.062 µg/mL
- MIC [30]: 128 µg/mL
- MIC [31]: 0.062 µg/mL
- MIC [32]: 0.25 µg/mL
- MIC [33]: 0.062 µg/mL
- MIC [34]: 0.125 µg/mL
- MIC ([35]; Escherichia coli, 5152, E. coli 5152, read-out: MIC): 8 µg/mL
- MIC [36]: 0.031 µg/mL
- MIC [37]: 0.125 µg/mL
- MIC [38]: 0.062 µg/mL
- MIC [39]: 8 µg/mL
- MIC [40]: 0.062 µg/mL
- MIC ([41]; Streptococcus pneumoniae, 6301, S. pneumoniae 6301, read-out: MIC): 1 µg/mL
- MIC [42]: 1 µg/mL
- MIC [43]: 0.25 µg/mL
- MIC ([44]; Escherichia coli, 257): 0.25 µg/mL

Structure (SMILES): CC1(C)S[C@@H]2[C@H](N=CN3CCC(CCCn4ccnc4N)CC3)C(=O)N2[C@H]1C(=O)O [I, [2S-(2alpha,5alpha,6beta)]-6-[[[4-[3-(2-amino-1H-imidazol-1-yl)propyl]piperidinyl]methylene]amino]-3,3-dimethyl-7-oxo-4-thia-1-azabicyclo[3.2.0]hpetane-2-carboxylic acid hydrochloride]
- MIC [1]: 0.062 µg/mL
- MIC [2]: 128 µg/mL
- MIC ([3]; Klebsiella aerogenes, 83, E. aerogenes 83, read-out: MIC): 1 µg/mL
- MIC [4]: 0.125 µg/mL
- MIC [5]: > 128 µg/mL
- MIC [6]: 1 µg/mL
- MIC [7]: 0.062 µg/mL
- MIC [8]: 0.062 µg/mL
- MIC [9]: 0.062 µg/mL
- MIC ([10]; Klebsiella pneumoniae, 4964): 0.25 µg/mL
- MIC [11]: 4 µg/mL
- MIC [12]: 4 µg/mL
- MIC [13]: 0.25 µg/mL
- MIC [14]: 0.031 µg/mL
- MIC [15]: 0.25 µg/mL
- MIC [16]: 0.25 µg/mL
- MIC [17]: 4 µg/mL
- MIC [18]: 128 µg/mL
- MIC ([19]; Enterobacter cloacae, 9295, E. cloacae 9295, read-out: MIC): 0.125 µg/mL
- MIC [20]: 128 µg/mL
- MIC [21]: 0.062 µg/mL
- MIC [22]: 0.031 µg/mL
- MIC [23]: > 128 µg/mL
- MIC [24]: > 128 µg/mL
- MIC [25]: > 128 µg/mL
- MIC [26]: 0.25 µg/mL
- MIC [27]: 128 µg/mL
- MIC [28]: 0.062 µg/mL
- MIC [29]: 0.031 µg/mL
- MIC [30]: > 128 µg/mL
- MIC [31]: 0.031 µg/mL
- MIC [32]: 0.125 µg/mL
- MIC [33]: 0.062 µg/mL
- MIC [34]: 0.062 µg/mL
- MIC ([35]; Escherichia coli, 5152): 4 µg/mL
- MIC [36]: 0.031 µg/mL
- MIC [37]: 0.062 µg/mL
- MIC [38]: 0.062 µg/mL
- MIC [39]: 16 µg/mL
- MIC [40]: 0.031 µg/mL
- MIC ([41]; Streptococcus pneumoniae, 6301): 2 µg/mL
- MIC [42]: 1 µg/mL
- MIC [43]: 0.125 µg/mL
- MIC ([44]; Escherichia coli, 257, E. coli 257, read-out: MIC): 0.031 µg/mL
